# Experimental data published in patent publication US20240141291A1, “FUNCTIONAL BRAIN REGION-SPECIFIC NEURAL SPHEROIDS AND METHODS OF USE” (THE UNITED STATES OF AMERICA, AS REPRESENTED BY THE …, priority 2021, published 2024).
# Values joined by “and” are separate entries in the source; they are usually repeats but may differ in a detail not shown here. Equal entries are not always repeated. “Also recorded” adds a separate entry of the source.
# Key:
# Assay type in all cases: cell-based, human
# [1] = tested on: PFC-like spheroids; experiment: FLIPR calcium activity with Cal6 dye, control compounds / DAMGO / AD compounds (Example 3); settings: for effect on peak count and peak spacing: 10 μM DAMGO, recording 30-min later, then naloxone
# Protocol: (§1) Viruses and dyes: To assess calcium activity, the calcium dye, Cal6 (Molecular Devices), and genetically encoded calcium indicator, GCaMP6f (Addgene, cat #100836-AAV9) were used. Cal6 was used according to manufacturer's instructions and 10 mL of maintenance media was added to each vial. Two hours before activity was recorded, half of the spheroid media was exchanged for media with Cal6. The plates were covered in foil and placed in the incubator at 37° C. during the 2-hour (hr) incubation period. Since all viruses used were adeno-associated viruses (AAV), they were added to the media on day 7 to allow for 2-weeks expression prior to recording or testing. All viruses were added to the media at 2e5 multiplicity of infection (MOI). GCaMP6f infection occurred via an adeno-associated virus serotype 9 (AAV9) expressed under the CAG promoter for expression in both neurons and astrocytes. Designer receptors exclusively activated by designer drugs (DREADDs) viruses were used to stimulate and inhibit neuronal activity within spheroids. Both viruses were retrograde AAVs expressed under the human Synapsin promoter for expression in neurons and fused with an mCherry fluorophore. The DREADDs viruses either inserted the designer receptor hM4D(Gi), an inhibitory G-protein coupled receptor, or hM3D(Gq), a stimulatory G-protein coupled receptor. Clozapine-N-oxide (CNO, Tocris cat #4936) was suspended in dimethyl sulfoxide (DMSO) and used as the designer drug to activate the DREADDs viruses. CNO was tested at 1 and 10 μM, with data reported from the 1 μM concentration.
# (§2) Fluorescent Imaging plate Reader (FLIPR): The FLIPR Penta (Molecular Devices) was used to assess calcium fluorescence across the 384-well plate simultaneously and to observe changes after treatment with compounds. The evening before calcium activity was measured, plates were sealed with parafilm and centrifuged at 1485×g for 2-min to get spheroids to the bottom of the well in a centered position. On the day of recording, the plate used for recording was placed in the read plate position inside of the FLIPR following the 2-hour Cal6 incubation at 37° C. Standard filter sets were used for Cal6 imaging with excitation set at 470-495 and emission at 515-575 nm. Fluorescent image reads were taken every 0.6 seconds for all plates, with exposure time of 0.03 and 50% excitation intensity. Recordings from the initial seven plates consisted of 1000 reads and were 10-min recordings with 2.5 gain, while the final two plates consisted of 500 reads (5-min recordings) with a gain of 2. Baseline recordings were taken across all plates and, if applicable, more recordings were obtained 1-, 30-, 60-, and/or 90-min after compound treatment. In between recordings, plates were wrapped in foil and placed back in the incubator at 37° C.
# DAMGO was reconstituted in water at a 1 mM concentration and diluted in media to 20 µM such that spheroids would be treated with a final concentration of 10 μM after the half media exchange. Two aspects of OUD were modeled, chronic treatment along with opioid withdrawal. For spheroids subjected to chronic DAMGO treatment, 20 μM DAMGO in maintenance media was added via half media exchange beginning on day 10, with treatments occurring every other day for 10 days, giving a total of five treatments.
# (§3) 384 Pin Tool: A 384 well pin tool (Rexroth) was used to transfer compounds simultaneously to the spheroid plate. Prior to compound transfer, the pin tool went through four wash cycles where pins were rinsed with dimethyl sulfoxide (DMSO), followed by methanol, then deionized (DI) water, to ensure the pins were clean. Compound transfer via the 384 well pin tool occurred after the baseline recordings with the fluorescent imaging plate reader (FLIPR). Here, 60 nL of compound suspended in DMSO was transferred to 60 µL of media in each well, diluting the compounds by 1000-fold and giving a final DMSO concentration of 0.1%.
# [2] = tested on: A53T VTA-like spheroids; experiment: Parkinson's Disease model, FLIPR calcium activity after compound treatment; settings: 90-min after treatment; for reversal of A53T-induced deficits (peak count, peak width): Ropinirole 1, 3 and 10 μM
# Protocol: as §2
# as §3, with “0.1%. Immediately after compound transfer, the spheroid plate was either placed back inside of the FLIPR for a recording 1-min after compound treatment or placed back in the incubator if post-treatment recording was >30-min after compound transfer.” for “0.1%.”
# Calcium Activity Analysis: Calcium oscillatory peak detection data from FLIPR recordings was obtained through ScreenWorks 5.1 (Molecular Devices). Initial peak detection analysis occurred within ScreenWorks 5.1 via the PeakPro 2.0 module. Here, all parameters were set to be the same for all wells per plate. The event polarity was always set to positive and search vector length always set to 11. The baseline, trigger level, which is automatically set to 10% above the baseline, and dynamic threshold, which is the threshold for peak detection were automatically identified by the PeakPro 2.0 module. Wells were manually checked to ensure these parameters were accurately identified prior to analysis. After analysis, data from 18 peak parameters (mean peak amplitude, peak amplitude standard deviation (SD), peak count, mean peak rate, peak rate SD, peak spacing, peaking spacing SD, mean number of EAD-like peaks per well, CTD @ 50% (peak width at 50% amplitude), CTD @ 90% (peak width at 90% amplitude), rise slope, rise slope SD, mean peak rise time, peak rise time SD, decay slope, decay slope SD, mean peak decay time, and peak decay time SD) was exported to a STATALL file that could be converted to a Microsoft Excel spreadsheet. There, percent coefficient of variance (% CV) was calculated within each plate to measure how variable each parameter exported was. […] All data was normalized to the average of DMSO-treated control wells within each plate. […] Bar plots with individual values are reported as mean±SEM.
# [3] = tested on: PFC-like spheroids; experiment: FLIPR calcium activity profiling, compound addition (Examples 1-2); settings: FLIPR recordings 1-, 30-, 70-min after compound (t1, t30, t70)
# Protocol: (§4) To examine neuronal activity changes as a response to compound treatment, calcium activity was assessed using a Fluorescent Imaging Plate Reader (FLIPR) Penta (Molecular Devices). FLIPR Calcium 6 Assay kits were purchased from Molecular Devices (PN: R8190). On day of activity profiling, 96-well or 384-well ULA round bottom (black sides, clear bottom) plates containing spheroids were removed from incubator. Fresh FLIPR Calcium 6 dye was prepared by diluting each vial in 10 ml of freshly prepared, phenol-free complete spheroid maturation media and vortexed for 2 minutes. Half of the media was removed from each well (45 μl from 384-well plate wells, 100 ul from 96-well plate wells) and replaced with equal amounts freshly prepared FLIPR Calcium 6 dye, followed by a 2-hour incubation in the dark in a 37 C, 5% CO2 incubator. After 2-hours, plates were removed and kept at room temperature for 10 minutes, then imaged and calcium activity read using the Molecular Devices FLIPR Penta High-Throughput Cellular Screening System. The FLIPR incubator stage was pre-warmed to 37° C. approximately 30 minutes prior to imaging. Standard filter sets were used for Cal6 imaging (excitation 470-495 and emission 515-575 nm). FLIPR recordings were obtained with the camera in normal mode, and settings included: gain was set to 2.5, exposure time to 0.03 seconds, and excitation intensity to 50%. Fluorescent image reads were taken every 0.6 seconds for a total of 1000 reads over a total run time of 10 minutes. Four recordings total were captured: baseline activity, 1-min after compound treatment, 30- and 70-min after compound treatment.
# (§5) After baseline activity, cell plates were removed from the FLIPR and transferred to a 384-well pin tool instrument. Prior to compound addition, the pin tool was subjected to 4 wash cycles exposing the pins to water, methanol, and DMSO each time. Compounds, including either “QC compounds” (compounds with known mechanism of action, listed in results) or the mu opioid receptor selective-agonist DAMGO, were transferred from a compound source plate to the 384-well spheroid plate. Immediately after compound transfer, the cell plate was placed back in the FLIPR for the recording that was 1-min after compound transfer to begin. After this 10-min recording, another recording was captured 30-min after compounds were transferred. After the 30-min recording, the plate was again removed from the FLIPR and transferred to the pin tool instrument. During this phase of compound transfer, naloxone was transferred to wells that received DAMGO during the first compound transfer. Following this second compound transfer, the cell plate was placed back in the FLIPR and a final recording was obtained 30-min later, and 70-min after the initial compound transfer.
# (§6) The FLIPR software ScreenWorks PeakPro 2.0 was used for the initial analysis of calcium activity using automated peak detection settings. With these settings, average peak statistics over each 10-min recording for each well were exported from PeakPro to Microsoft Excel. ScreenWorks Peak Pro 2.0 software was used to extract 17 activity features describing different aspects of calcium activity profiles. These included peak amplitude (PkA), peak amplitude standard deviation (PkASD), peak count (PkCt), peak rate (measured as peaks per minute, PpM), peak rate SD, peak spacing (PkSp), peak spacing SD (PkSpSD), peak spacing regularity, area under the curve (AUC), AUC SD, peak rise slope, peak rise slope SD, peak rise time (PkRt), peak ride time SD (PkRtSD), peak decay slope, peak decay slope SD, peak decay time (PkDt), and peak decay time SD (PkDtSD). To assess variability of these peak parameters, percent coefficients of variance (CV) were calculated by dividing the standard deviation/mean and multiplying by 100 for each designer spheroid type, and those with % CV's […] 20% were removed from future analysis. […]
# [4] = tested on: VTA-like spheroids; experiment: as above; settings: FLIPR recordings 1-, 30-, 70-min after compound (t1, t30, t70)
# Protocol: as §4, §5, §6
# [5] = tested on: VTA-like spheroids; experiment: FLIPR calcium activity with Cal6 dye, control compounds / DAMGO (Example 3); settings: VTA-like spheroids, chronic DAMGO pre-treatment
# Protocol: as §1, §2
# DAMGO was reconstituted in water at a 1 mM concentration and diluted in media to 20 µM such that spheroids would be treated with a final concentration of 10 μM after the half media exchange. Two aspects of OUD were modeled, chronic treatment along with opioid withdrawal. […]
# 384 Pin Tool: A 384 well pin tool (Rexroth) was used to transfer compounds simultaneously to the spheroid plate. […] Compound transfer via the 384 well pin tool occurred after the baseline recordings with the fluorescent imaging plate reader (FLIPR). […]
smiles,measurement,setting,value
CCN(C)C(=O)Oc1cccc([C@H](C)N(C)C)c1 [Rivastigmine],effect on peak count and spacing in Wt PFC-like spheroids,"[1]; Wt PFC-like spheroids, 90 min after treatment",differences were observed in all groups except Rivastigmine
Cc1ccc(C(=O)c2cc(O)c(O)c([N+](=O)[O-])c2)cc1 [Tolcapone],"reversal of A53T-induced deficits (peak count, peak width)",[2],only Ropinirole was found to reverse this 90-min after treatment
N#Cc1cc2[nH]c(=O)c(=O)[nH]c2cc1[N+](=O)[O-] [CNQX],effect on calcium activity peak parameters compared to DMSO controls,[3],total inhibition of calcium activity that lasted throughout the entire recording period
same,effect on calcium activity peak parameters compared to DMSO controls,[4],"total inhibition of calcium activity during the t1 recording and 30-min after CNQX treatment, PkCt and PpM were significantly increased while PkA, PkSp, and PkDt were all still reduced and had no impact on calcium activity in VTA-like spheroids during the t70 recording"
same,functional response (calcium activity peak parameters) to control compound,"[1]; PFC-like spheroids, recordings 1-, 30-, 60-min after treatment","inhibited all activity in PFC-like spheroids for all three recordings (1-, 30-, and 60-min); also recorded: total inhibition that lasted throughout the 1-hr period"
"Nc1ccncc1 [4-AP, 4-aminopyradine]",effect on calcium activity peak parameters compared to DMSO controls,[3],"significantly increased PkCt 1-min after exposure; also recorded: For the t30 recording, there was a significant increase in peaks per minute (PpM) and the decay slope; also recorded: Significant increases in PkCt and PpM as well as a reduction in PkSp resulted from 4-AP 70-min after exposure"
same,effect on calcium activity peak parameters compared to DMSO controls,[4],"did not have any impact on PkCt, PkA, PpM, or PkSp at t1, t30, or t70; also recorded: significantly reduced PkDt at t1; also recorded: trend toward statistical significance for increasing the decay slope"
CN1[C@@H]2CC[C@H]1C[C@@H](OC(c1ccccc1)c1ccccc1)C2 [Benztropine],"reversal of A53T-induced deficits (peak count, peak width)",[2],only Ropinirole was found to reverse this 90-min after treatment
C#CCN[C@@H]1CCc2ccccc21 [Rasagiline],"reversal of A53T-induced deficits (peak count, peak width)",[2],only Ropinirole was found to reverse this 90-min after treatment
NC12CC3CC(CC(C3)C1)C2 [Amantadine],"reversal of A53T-induced deficits (peak count, peak width)",[2],only Ropinirole was found to reverse this 90-min after treatment
C=CCN1CC[C@]23c4c5ccc(O)c4O[C@H]2C(=O)CC[C@@]3(O)[C@H]1C5 [naloxone],reversal of deficits induced by chronic opioid treatment,[5],reverses deficits induced by chronic opioid treatment in PFC-like but not VTA-like spheroids
same,effect on peak count and peak spacing,[1]; PFC-like chronic DAMGO-treated spheroids,those treated with naloxone no longer showed significant differences in these peak parameters compared to DMSO-treated controls; also recorded: reverses deficits induced by chronic opioid treatment in PFC-like but not VTA-like spheroids
same,effect on peak count and peak spacing,[1]; PFC-like control spheroids,reversed deficits in peak count and spacing in acute DAMGO-treated control spheroids
CCCN(CCC)CCc1cccc2c1CC(=O)N2 [Ropinirole],effect on subpeak count,[2],"3 and 10 μM, but not 1 μM, Ropinirole significantly reduced subpeak count"
same,"reversal of A53T-induced deficits (peak count, peak width)",[2],significantly reduce peak count and increase peak width to the level that they were no longer significantly different from Wt DMSO-treated control spheroids; also recorded: restored deficits across all 3 peak measures
OC(CCN1CCCCC1)(c1ccccc1)C1CCCCC1 (stereo not shown) [Trihexyphenidyl],"reversal of A53T-induced deficits (peak count, peak width)",[2],only Ropinirole was found to reverse this 90-min after treatment
N[C@@H](Cc1ccc(O)c(O)c1)C(=O)O [L-Dopa],"reversal of A53T-induced deficits (peak count, peak width)",[2],only Ropinirole was found to reverse this 90-min after treatment
NC(CCCP(=O)(O)O)C(=O)O (stereo not shown) [AP5],effect on calcium activity peak parameters compared to DMSO controls,[3],did not impact calcium activity
same,effect on calcium activity peak parameters compared to DMSO controls,[4],did not impact calcium activity
